# Measured values: US9546179B2, “Heterocycle amido alkyloxy substituted quinazoline derivative and use thereof” (priority 2011, dated 2017)
# Marks after values point to notes of the source that are not given here.
# Columns and labels:
# [1] = test system: Human lung cancer cells (A549); test: Anticancer effect in vitro on A549 cells (MTT, GI50); type: cell-based; conditions: A549, 72 hours
# Method: The inhibitory effect on the cancer cells of the compounds prepared in Example 1-Example 13, Example 20, Example 48, Example 49 and Example 57 was determined in vitro using cancer cells. The results are shown in table 2, and the specific detection methods are as follows:
# Human lung cancer cells were (A549, purchased from Shanghai FuMeng Gene Bio-technology Co., Ltd.) cultured in DMEM containing 2 m M/L-glutamine and 10% FBS, and inoculated in 96-well plate, 200 μL/well and 2000 cells per well; the plate was preincubated for 24 hours under the condition of 5% CO2 and 100% relative humidity at 37° C., allowing for cell adherence.
# When the cells adhered, the supernatant was removed, and 200 μL drug-containing culture medium was added with different concentration of compounds into each well (in concentration of 20 μg/ml, 12.5 µg/ml, 6.25 μg/ml, […], 1.5625 μg/ml and 0.78125 μg/ml), 3 multiple wells were set up for each drug concentration as well as blank control (cell culture medium without cells), and drug-free control (with no drugs, filled with complete medium in equal amount only), cultured for 72 hours under the condition of 5% CO2 incubator at 37° C. (100% relative humidity).
# After the culture ended, the supernatant was carefully removed, and adding 200 μl DMEM culture medium containing 3% FBS with 500 μg/ml MTT into each well, and culturing for 4 hours under the condition of 5% CO2 incubator at 37° C. (100% relative humidity). After the supernatant was discarded, 150 μL DMSO was added in each well for solving. the GI50 value was measured by detecting the absorbance in the 570 nm wavelength.
# [2] = test system: human lungs cancer cell strain A549; test: Tumor inhibitory effect on nude mice bearing A549 tumors; type: in vivo
# Method: After digesting and detaching the monolayer-cultured human lungs cancer cell strain A549 (purchased from Shanghai FuMeng Gene Bio-technology Co., Ltd.), cells were collected and resuspended in the serum-free culture medium, and the concentration was adjusted to be 2×10^6/0.2 mL. 0.2 mL cell suspension was taken by injector and transplanted under the skin of square scapula behind left armpit of nude mice, 0.2 mL for each mouse. The tumor volume was measured every 2 or 3 days. The nude mice bearing tumors which rapidly grew without any diabrosis were selected after two weeks. Under the condition of asepsis, the tumors were removed, and cut into tumor tissue with the diameter of approximately 2-3 mm, and then inoculate the tissue under the skin of square scapula behind left armpit of nude mice by trocar. After repetition in three generations, the nude mice received administration randomly in groups excluding the ones bearing too large or too small tumors, when the tumor grew to be about 100 mm^3 in volume.
# The selected animals were 6-week old BALB/C nude mice. The male mice were 20-22 g in weight and provided by Shanghai Laboratory Animal Center (SIPPR BK) (production permit No. SCXK (Hu) 2008-0016). The experimental period was totally 111 days.
# The experiment was randomly divided into 2 groups, the negative control group consisting of 12 mice (solvent administration only) and treatment group consisting of 12 mice (compound C, 100 mg/kg).
# Ethanol was used as cosolvent to promote dissolution of compound C, adding 0.5 w/v % carboxymethyl cellulose to form suspension with a 0.5% final concentration of carboxymethyl cellulose and a 10 w/v % final concentration of ethanol, and then, using ultrasound to form uniform suspension. The dosage for intragastric administration was 0.1 ml/10 g, and the negative control group was only subjected to the same solvent. On the first day of experiment, compound C was given 100 mg/kg in the morning and in the evening respectively, and afterwards, 100 mg/kg was given in every morning only. The negative control group was only given 0.1 ml/10 g of 10 v/v % ethanol 0.5 w/v % carboxymethyl cellulose in every morning.
# Index: observing state of animals and measuring body weight daily; measuring tumors by calipers every two days. Sacrifice the animal in 24 hours after the last administration and measure the volume and size of tumor. Dissecting the animal and removing the tumor; weighing the tumor and nude mice; and then, drawing the curves of tumor volume and growth, nude mouse weight, tumor inhibition rate and animal death rate.
# Tumor diameter measurement is used to observe the antitumor effect of the test substances dynamically. The formula for tumor volume (TV) calculation is: v=0.5×a×b^2(mm^3); wherein, a and b stand for length and width respectively.
# The relative tumor volume (RTV) is calculated according to the measurement result; RTV=Vt/V0, wherein V0 is the tumor volume measured at the beginning of administration (i.e. d0) and Vt is the tumor volume at each measurement.
# The index to evaluate antitumor activity is relative tumor proliferation rate T/C (%)
# In the above formula, TRTV: RTV of treatment group, CRTV: RTV of negative control group.
# [3] = A549 in nude mice, 100 mg/kg intragastric, 21st day after administration
compound,measurement,setting,value
"COc1cc2ncnc(Nc3ccc(F)c(Cl)c3)c2cc1OCCCN1CCC2(COC2)C1 [Example 2, 4-(3′-chloro-4′-fluorophenylamino)-6-[3-(2-oxa-6-azaspiro[3.4]octane-6-yl)-propoxy]-7-methoxyquinazoline]",GI50,[1],20.4 µM
same,body weight of the nude mice compared with the control group,"[2]; 100 mg/kg intragastric, FIG. 1",consistent fluctuation
same,average tumor weight compared with the negative group,"[2]; 21st day after administration, 100 mg/kg, P<0.05",less than the negative group
same,Tumor mass,[2]; [3],0.55 ± 0.43 g
same,Tumor volume,[2]; [3],515.4 ± 388.0** mm^3
same,Tumor inhibition rate,"[2]; A549 in nude mice, 100 mg/kg intragastric, from tumor weight",47.62%
same,T/C %,"[2]; A549 in nude mice, 100 mg/kg intragastric, relative tumor proliferation rate",43.44%
same,RTV,"[2]; A549 in nude mice, 100 mg/kg intragastric, relative tumor volume Vt/V0",4.57 ± 2.11
same,tumor volume and size compared with the control group,"[2]; two weeks after administration, 100 mg/kg, p<0.05, FIG. 2",significantly less than the control group
